Assay results: patent US20050054006A1, “Combinatorial fluorescent library based on the styryl scaffold” (New York University, priority 2003, published 2005)
“And” between values parts separate entries of the source, which are not always exact repeats. Equal entries are not always repeated. “Also recorded” adds a separate entry of the source.

Assays:
[1] = Fluorescence excitation/emission of the styryl dye library compounds; type: physicochemical
[2] = test system: UACC-62 human melanoma cells; assay: Organelle localization in live cells by fluorescence microscopy; conditions: live UACC-62 cells, fluorescence microscope λex=405, 490, 570 nm; λem>510 nm

SMILES | EM(nm) ([1]; EX/EM peak no. 1) | EX(nm) ([1]; EX/EM peak no. 1) | EM(nm) ([1]; EX/EM peak no. 2) | EX(nm) ([1]; EX/EM peak no. 2) | LOCALIZATION [2]
C(=Cc1ccc2ccccc2c1)c1cc[n+](C23CC4CC(CC(C4)C2)C3)cc1.[Br-] [Compound B33] | 500 nm | 350-420 nm | 580 | 360-400 nm | MITO and CYTO and VESICLE
Cc1ccnc(-c2cc(C=Cc3ccc4c(c3)OCO4)cc[n+]2C)c1.[I-] [Compound J39] | 560 nm | 350-450 nm | – | – | MITO
Cc1ccnc(-c2cc(/C=C/c3cccc4ccccc34)cc[n+]2C)c1.[I-] [Compound J32] | 530 nm | 350-450 nm | – | – | MITO
COc1ccc2c(ccc(C=Cc3ccc(N(C)C)c4ccccc34)[n+]2C)c1.[I-] [Compound I27] | 630-660 nm | 420 nm | – | – | NUCLEOLI
COc1cc(OC)c(OC)cc1C=Cc1cc[n+](C23CC4CC(CC(C4)C2)C3)cc1.[Br-] [Compound B38] | 580 nm | 400-480 nm | – | – | NUCLEI and MITO
COc1ccc2c(ccc(C=Cc3ccc(N(C)C)cc3)[n+]2C)c1.[I-] [Compound I19] | 630 nm | – | – | – | NUCLEOLI
COc1ccc2c(ccc(C=Cc3ccc4c(c3)Cc3ccccc3-4)[n+]2C)c1.[I-] [Compound I28] | 660 nm | 450(broad) nm | – | – | NUCLEOLI
C[n+]1ccc(/C=C/c2cccc([N+](=O)[O-])c2)c2ccccc21.[I-] [Compound G21] | 670 nm | 450-550 nm | – | – | MITO
C[n+]1c(C=Cc2cccc3ccccc23)ccc2ccccc21.[I-] [Compound H32] | 660 nm | 420 nm | – | – | MITO and NUCLEOLI
CC(=O)Nc1ccc(/C=C/c2cc[n+](C)c3ccccc23)cc1.[I-] [Compound G18] | 670 nm | 430 nm | – | – | MITO
C[n+]1c(C=Cc2ccc3ccccc3c2)ccc2ccccc21.[I-] [Compound H33] | 620 nm | 340-460 nm | – | – | MITO and NUCLEI and CYTO and VESICLE
COc1ccc2ccccc2c1C=Cc1cc[n+](C)cc1.[I-] [Compound A23] | 540 nm | 450 (broad) nm | – | – | CYTO and MITO
COc1ccc(C=Cc2cc[n+](C)c(-c3cc(C)ccn3)c2)cc1.[I-] [Compound J10] | 520 nm | 350-450 nm | – | – | MITO
COc1ccc(C=Cc2ccc3ccccc3[n+]2C)cc1O.[I-] [Compound H15] | 610-620 nm | 420 nm | – | – | MITO
C[n+]1c(C=Cc2ccccc2[N+](=O)[O-])ccc2ccccc21.[I-] [Compound H20] | 620 nm | – | – | – | NUCLEOLI
O=[N+]([O-])c1ccccc1C=CC=Cc1cc[n+](C23CC4CC(CC(C4)C2)C3)cc1.[Br-] [Compound B36] | 520 nm | 420 nm | – | – | MITO
COc1cc(OC)c(OC)cc1C=Cc1cc[n+](C)c2ccccc12.[I-] [Compound G38] | 640 nm | 420 nm | – | – | VESICLE and CYTO and NUCLEI
CN(C)c1ccc(C=Cc2cc[n+](C)cc2)c2ccccc12.[I-] [Compound A27] | 640 nm | 450 nm | – | – | CYTO
C[n+]1c(C=Cc2ccc3c(c2)Cc2ccccc2-3)ccc2ccccc21.[I-] [Compound H28] | 660 nm | 350-500 nm | – | – | NUCLEI
CN(C)c1ccc(/C=C/c2ccc3ccccc3[n+]2C)cc1.[I-] [Compound H19] | 640 nm | 490(broad) nm | – | – | NUCLEOLI
COc1ccc2c(ccc(C=CC=Cc3ccccc3)[n+]2C)c1.[I-] [Compound I35] | 580 nm | 320-360 nm | – | – | CYTO
Cc1ccnc(-c2cc(C=Cc3ccc4ccccc4c3)cc[n+]2C)c1.[I-] [Compound J33] | 520 nm | 320-450 nm | – | – | MITO
C[n+]1ccc(/C=C/c2c[nH]c3ccccc23)c2ccccc21.[I-] [Compound G24] | 610 nm | 490 nm | – | – | MITO
Cc1ccnc(-c2cc(/C=C/Cc3ccccc3)cc[n+]2C)c1.[I-] [Compound J1] | 620 nm | 450 nm | – | – | MITO
COc1ccc2c(ccc(C=Cc3ccc(-c4ccccc4)cc3)[n+]2C)c1.[I-] [Compound I17] | 510 nm | – | – | – | VESICLE
Cc1ccc(C=Cc2cc[n+](C)c3ccccc23)cc1.[I-] [Compound G8] | 650 nm | 440 nm | – | – | MITO

SMILES | EM(nm) ([1]; EX/EM peak no. 1) | EX(nm) ([1]; EX/EM peak no. 1) | EM(nm) ([1]; EX/EM peak no. 2) | EX(nm) ([1]; EX/EM peak no. 2) | LOCALIZATION [2]
Fc1c(F)c(F)c(C=Cc2cc[n+](C34CC5CC(CC(C5)C3)C4)cc2)c(F)c1F.[Br-] [Compound B31] | 580 nm | 430 nm | – | – | MITO
COc1ccccc1C=Cc1cc[n+](C)c(-c2cc(C)ccn2)c1.[I-] [Compound J9] | 520 nm | 420(broad) nm | – | – | MITO
Oc1ccc(C=Cc2cc[n+](C34CC5CC(CC(C5)C3)C4)cc2)cc1.[Br-] [Compound B16] | 590 nm | 400 nm | – | – | MITO
Cc1ccnc(-c2cc(C=CC=Cc3ccccc3)cc[n+]2C)c1.[I-] [Compound J35] | 580 nm | 340-420 nm | – | – | CYTO
COc1ccc2c(ccc(C=CC=Cc3ccc(N(C)C)cc3)[n+]2C)c1.[I-] [Compound I37] | 730 nm | 530 nm | – | – | CYTO
CN(C)c1ccc(C=Cc2cccc[n+]2C)cc1.[I-] [Compound C19] | 580 nm | 460 (broad) nm | – | – | MITO
C[n+]1c(C=Cc2ccc(-c3ccccc3)cc2)ccc2ccccc21.[I-] [Compound H17] | 650 nm | 430 nm | 540 | 420 nm | VESICLE; also recorded: NUCLEOLI
CN(C)c1ccc(C=Cc2cc[n+](C)c3ccccc23)c2ccccc12.[I-] [Compound G27] | 720 nm | 450-550(broad) nm | – | – | MITO
C[n+]1ccccc1C=Cc1ccc(OCc2ccccc2)c(OCc2ccccc2)c1.[I-] [Compound C12] | 520 nm | 390 (broad) nm | – | – | MITO? and ER?
CN(C)c1ccc(/C=C/c2cc[n+](C)c3ccccc23)cc1.[I-] [Compound G19] | 670 nm | 500 nm | – | – | MITO
COc1ccc2c(ccc(C=Cc3ccc(OCc4ccccc4)c(OCc4ccccc4)c3)[n+]2C)c1.[I-] [Compound I12] | 560 nm | – | – | – | VESICLE
COc1ccc(C=Cc2ccc3cc(OC)ccc3[n+]2C)cc1.[I-] [Compound I10] | 520 nm | – | 640 | – | CYTO and VESICLE
COc1ccc2c(ccc(C=Cc3ccccc3[N+](=O)[O-])[n+]2C)c1.[I-] [Compound I20] | 620 nm | 420(broad) nm | – | – | NUCLEOLI
C[n+]1c(C=Cc2ccc(OCc3ccccc3)c(OCc3ccccc3)c2)ccc2ccccc21.[I-] [Compound H12] | 560 nm | 430 nm | – | – | VESICLE
COc1ccc2ccccc2c1C=Cc1ccc2ccccc2[n+]1C.[I-] [Compound H23] | 580 nm | 420-480 nm | – | – | VESICLE; also recorded: NUCLEOLI
C[n+]1c(C=CCc2ccccc2)ccc2ccccc21.[I-] [Compound H1] | 640 nm | – | – | – | MITO
COc1ccc2c(ccc(C=Cc3cc(OC)c(OC)cc3OC)[n+]2C)c1.[I-] [Compound I38] | 620 nm | 390 nm | – | – | CYTO
CN(C)c1ccc(C=CC=Cc2cc[n+](C34CC5CC(CC(C5)C3)C4)cc2)cc1.[Br-] [Compound B37] | 700 nm | – | – | – | MITO
C[n+]1c(C=Cc2c[nH]c3ccccc23)ccc2ccccc21.[I-] [Compound H24] | 560 nm | 400-500 nm | – | – | CYTO
COc1ccc2ccccc2c1C=Cc1cccc(C)[n+]1C.[I-] [Compound L23] | 570 nm | 420 nm | – | – | CYTO
C[n+]1ccc(C=Cc2cccc3ccccc23)c2ccccc21.[I-] [Compound G32] | 560 nm | 430 nm | – | – | MITO
C[n+]1c(C=Cc2ccc3c(c2)OCO3)ccc2ccccc21.[I-] [Compound H39] | 670 nm and 560 nm | 530 nm and 430(broad) nm | – | – | CYTO
CCc1ccc(C=C/C=C/c2ccc(N(C)C)cc2)[n+](C)c1.[I-] [Compound E37] | 670 nm | 520 nm | – | – | MITO and NUCLEOLI
C[n+]1c(C=Cc2ccccc2Br)ccc2ccccc21.[I-] [Compound H3] | 640 nm | 530 nm | – | – | MITO
CCc1ccc(C=Cc2c(OC)ccc3ccccc23)[n+](C)c1.[I-] [Compound E23] | 510 nm | 420(broad) nm | – | – | CYTO
COc1ccc2ccccc2c1C=Cc1cccc[n+]1C.[I-] [Compound C23] | 530 nm | 420 nm | – | – | CYTO
